Read-outs that look alike come from different tables or passages of the source.
Assays:
[1] = test system: primary astrocyte cultures; assay: Viability of primary astrocyte cultures; settings: same doses as for neurons (up to 1 μM)
primary cortical neurons = assay: Viability of primary cortical neuronal cultures; settings: 1 μM, 72 hours in culture
Procedure: Cortical neuronal cultures were prepared using previously described protocols. […] The tissue was further dissected into smaller pieces. After washes in cold PBS without Ca^+2/Mg^+2, tissue was incubated in 0.05% trypsin in PBS without Ca^+2/Mg^+2. Tissue was then dissociated in NB media using a blue-tip pipette. Dissociated cells were layered onto a 4% BSA cushion to remove debris. Cells were plated in NB media at a density 4×10^4 cells/well in a 24 well dish. After 24 hours, media was removed and replaced with fresh media with or without 5FU or F10. After 72 hours in culture, surviving neurons were counted. To be counted a cell had to have a phase-bright cell body and at least one neurite that was at least two times the diameter of the soma. Results are expressed as percent control (Mean±SD) where control represents cultures without the addition of 5FU or F10 (n=4 individual experiments with at least two wells per condition). Statistical significance was determined with a one-way ANOVA followed by the Bonferroni post-hoc test.

U138 cells [2] = assay: Radiosensitization of U138 cells (clonogenic, 6 Gy); assay type: cell-based, human; settings: FdUMP[10] and AZD7762 given before irradiation
Procedure: FIG. 9. Treating human glioma U138 cells with FdUMP[10] and AZD7726 enhanced their radiosensitivity. 500-2000 U138 cells were seeded into 60 mm dishes and treated with 1 nM FdUMP[10] (F1) for 9 h and 10 nM AZD7726 (A2) for 1 h prior to irradiation with a single dose of 6 Gy. Cells were fixed and stained with violet blue and colonies were counted using a colony counter at 10 days post-treatment. The study indicates combined treatment U138 with FdUMP[10] and AZD7762 sensitize cells to radiation.
Radiation is cytotoxic as a consequence of unrepaired DNA damage. […] In these studies, FdUMP[10] was administered […] prior to irradiation and AZD7762 1 h prior to radiation. Though not wishing to be bound by theory, it is thought that radiosensitization results from induction of a thymineless state following FdUMP[10] treatment and disabling of HRR and abrogation of the G2 checkpoint following AZD7762 treatment. Under these conditions, DNA repair of radiation-induced DNA damage is inhibited due to lack of thymidine while inhibiting Rad51 activation prevents HRR which is important for repair of radiation-induced DNA DSBs (Helleday 2010). Abrogating the G2-checkpoint causes cells to enter mitosis with lethally-damaged DNA enhancing the cytotoxic effects of radiation.

U138 cells [3] = assay: Flow cytometry of DNA content and cleaved caspase 3 in U138 cells; assay type: cell-based, human
Procedure: U138 cells were treated with 1 nM FdUMP[10] and/or 10 nM of AZD7762 for 9 or 1 h, respectively, prior to irradiation with a single dose of 6 Gy. Cells were harvested 24 h post-irradiation and analyzed for DNA content (A) and cleaved caspase 3 (B) by flow cytometry.

U138 cells [4] = assay: Clonogenic survival of U138 cells; assay type: cell-based, human; settings: 1 nM FdUMP[10] and/or 10 nM AZD7762, drugs removed after 72 h, colonies counted 10 days post-treatment
Procedure: 500-2000 U138 cells were seeded into 60 mm dishes and treated with 1 nM FdUMP[10] (F1) and/or 10 nM AZD7726 (A2) and the drugs were removed after 72 h. Cells were fixed and stained with violet blue and colonies were counted using a colony counter 10 days post-treatment. […] The results are consistent with FdUMP[10]AZD7762 being synergistic at decreasing the clonogenicity of U138 cells.

[5] = target: T1, thymidylate synthase (TS) (Homo sapiens, UniProt P04818); assay: TS catalytic activity assay in lysates of treated GBM cells; assay type: cell-based; settings: G48a, U-251 MG and SNB-19 GBM cells; F10 10^−6 and 10^−5 M, raltitrexed 10^−6 M
T1 construct: harvested, and lysed by freeze-fracturing; Following centrifugation of cell lysates, supernatants were assayed for protein content and TS catalytic activity; endogenous in cells; host or cells: G48a, U-251 MG and SNB-19 GBM cells
T1 sequence (P04818 2-313 limits assumed): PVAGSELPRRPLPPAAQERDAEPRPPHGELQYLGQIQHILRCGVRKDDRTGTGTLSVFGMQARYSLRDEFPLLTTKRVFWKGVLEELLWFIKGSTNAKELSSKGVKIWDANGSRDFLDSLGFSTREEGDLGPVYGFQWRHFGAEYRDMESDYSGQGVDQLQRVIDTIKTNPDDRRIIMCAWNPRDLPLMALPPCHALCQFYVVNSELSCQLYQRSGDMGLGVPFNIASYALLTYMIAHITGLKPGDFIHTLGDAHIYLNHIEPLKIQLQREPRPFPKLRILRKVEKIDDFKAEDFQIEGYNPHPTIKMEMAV
Procedure: TS assays were conducted using procedures similar to those previously described. (Gmeiner et al., Enhanced DNA-directed effects of FdUMP[10] compared to 5FU. Nucleosides Nucleotides Nucleic Acids. 2004; 23(1-2):401-410.) GBM cells were plated at a density of 1.5×10^6 cells in 100 mm^2 plates. Cells were grown overnight in RPMI 1640 medium with 10% FBS. Either 5FU (Sigma), F10, or raltitrexed were then added at the indicated concentrations and the cells were incubated for 8, 16, 24, or 48 hrs, harvested, and lysed by freeze-fracturing. Following centrifugation of cell lysates, supernatants were assayed for protein content and TS catalytic activity as previously described. (Gmeiner et al., Enhanced DNA-directed effects of FdUMP[10] compared to 5FU. Nucleosides Nucleotides Nucleic Acids. 2004; 23(1-2):401-410.)

[6] = Dose-finding / tolerability upon i.c. administration; assay type: in vivo, nude mice
Excerpt: The nanoscale size of F10 (length ˜3 nm), as well as its multiple negative charges, make penetration of the BBB following systemic delivery an inefficient process. Conversely, intra-cranial (i.c.) administration of F10 is expected to result in high local concentrations that may be therapeutically beneficial, particularly in light of the relatively strong cytotoxicity towards GBM cells and the minimal toxicity of F10 towards primary cortical neurons (FIG. 3A). Dose-finding studies in nude mice were performed to identify doses that were sufficiently well-tolerated to be evaluated in efficacy studies. F10 was dissolved in PBS and administered i.e. using an Alzet osmotic mini-pump over a 7 day period. Vehicle-only served as a control. […] These dose levels are considerably lower than those used in recent leukemia studies in which F10 was administered systemically (200 mg/kg qodx4) (Pardee et al., Unique dual targeting of thymidylate synthase and topoisomerase 1 by FdUMP[10] results in high efficacy against AML and low toxicity. Blood. 2012; 119(15):3561-3570), consistent with F10 being retained within the BBB upon i.c. administration.

[7] = target: T2, DNA Topoisomerase 1 (Top1) cleavage complex (Homo sapiens, UniProt P11387); assay: In vivo complex of enzyme (ICE) bioassay; assay type: cell-based; settings: SNB-19 and U-251 MG cells
T2 construct: endogenous in cells; host or cells: SNB-19 and U-251 MG GBM cells
T2 sequence (P11387 2-765 limits assumed): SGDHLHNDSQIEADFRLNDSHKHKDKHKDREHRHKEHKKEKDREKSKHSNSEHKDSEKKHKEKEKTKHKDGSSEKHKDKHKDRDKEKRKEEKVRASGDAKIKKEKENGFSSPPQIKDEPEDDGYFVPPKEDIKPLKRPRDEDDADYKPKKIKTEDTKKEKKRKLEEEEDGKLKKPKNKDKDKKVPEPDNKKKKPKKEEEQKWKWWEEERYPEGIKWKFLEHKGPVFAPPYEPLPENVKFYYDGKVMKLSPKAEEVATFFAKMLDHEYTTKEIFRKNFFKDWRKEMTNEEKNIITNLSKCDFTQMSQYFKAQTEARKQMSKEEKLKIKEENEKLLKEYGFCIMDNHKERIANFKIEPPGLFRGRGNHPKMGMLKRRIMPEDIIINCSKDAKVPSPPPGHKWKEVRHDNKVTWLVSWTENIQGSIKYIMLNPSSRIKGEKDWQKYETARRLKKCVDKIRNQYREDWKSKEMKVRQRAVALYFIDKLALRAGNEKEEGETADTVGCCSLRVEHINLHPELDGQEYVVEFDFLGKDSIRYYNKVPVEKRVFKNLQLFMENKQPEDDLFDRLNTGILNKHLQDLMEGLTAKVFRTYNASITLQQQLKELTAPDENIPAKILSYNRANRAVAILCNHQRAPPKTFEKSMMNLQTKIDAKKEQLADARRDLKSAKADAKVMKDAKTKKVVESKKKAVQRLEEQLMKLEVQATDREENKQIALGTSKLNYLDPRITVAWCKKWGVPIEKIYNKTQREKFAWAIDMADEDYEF
Procedure: G48a and primary explant cells derived from patient GBM tumors were grown in RPMI 1640 (Lonza, Rockland, Me.) supplemented with 10% FBS and glucose (2 g/L). G48a-luciferase cells were produced by lentiviral infection using a GFP-tagged vector. Cells were selected using blastocydin (10 μg/mL). U-251 MG and SNB-19 cells were obtained from ATCC and grown in RPMI 1640 (Lonza, Rockland, Me.) supplemented with 10% FBS and glucose (2 g/L). U-251 MG cells were grown in DMEM supplemented with 10% FBS and non-essential amino acids. In vivo complex of enzyme (ICE) bioassays were completed using methods similar to those previously described. (Liao et al., A novel polypyrimidine antitumor agent FdUMP[10] induces thymineless death with topoisomerase I-DNA complexes. Cancer Res. 2005; 65(10:4844-4851) GBM cells were incubated with F10 at the indicated concentrations for 0-48 hrs. Thymidine (Thy) rescue was accomplished by adding Thy at 80 μM, as the 20 μM dose previously described (Wang et al., Mechanisms of acquired chemoresistance to 5-fluorouracil and tomudex: thymidylate synthase dependent and independent networks. Cancer Chemother Pharmacol. 2007; 59(6):839-845) was not effective for rescue. Cell samples were counted and equalized for cell number. Primary antibody (mouse anti-human DNA Top I, BD Pharmingen) was added at 1:500 dilution. Secondary antibody (Cell Signaling) was used at 1:1000. […]

G48a cells = assay: Cytotoxicity (cell viability) towards G48a GBM cells; assay type: cell-based, human; settings: G48a cell line; FIG. 1C
U-251 MG = settings: cited from earlier work
[8] = test system: G48a orthotopic xenografts
Procedure: G48a-luc were suspended into Hanks Balanced Salt Solution to a density of 10^5 cells/μL. Nude (nu/nu) 7-week old mice were obtained from NCI. Mice were anesthetized using a ketamine/xylazine mixture and placed on a small-animal, head-holding frame. A scalp incision was made to determine the drill-hole location, 1 mm right and 1 mm anterior to lambda. A 27-gauge needle attached to a 10 mL sterile Hamilton syringe (Hamilton, Reno, Nev.) was stereotactically inserted 3 mm below the dural surface and cells were injected into the deep white matter of the posterior thalamus. Cells were injected in a total of 5 μL over a five minute period. The syringe was removed two minutes after the injection was completed, retracting it at a rate of 0.5 mm per minute. After removal of the syringe, the hole was covered with cranio-plastic liquid. Animals were sutured, allowed to recover on a heating pad, and returned to their cages. Animal weight and behavior was monitored every three days.
Starting on day 21 after tumor cell implantation, mice were treated by intra-cerebral (i.c.) infusion (0.5 μL/h) of F10 at 3 concentrations (80, 120 and 160 mg/kg) for a duration of 7 days. Drug was prepared in phosphate buffered saline. Osmotic pumps (ALZET® model 1007D, Alzet, Cupertino, Calif.) were primed in sterile saline overnight at 37° C. according to manufacturer's specification. The pumps were then coupled to brain infusion kits (ALZET® model 3). Animals were anesthetized using a ketamine/xylazine mixture and placed on a small-animal head holding frame, and the location of initial injection (1 mm right and 1 mm anterior to lambda) was retraced. The cannula was then inserted to a depth of 3 mm and secured with cranio-plastic adhesive and the pump was placed subcutaneously between the shoulder blades. Animals were sutured, allowed to recover and evaluated for any motor deficits resulting from the surgical procedure. […] Animals were euthanized 24 hours post-treatment when body weight loss was above 12% or when behavior prevented normal activity.
Animals received an intraperitoneal (i.p.) injection of D-luciferin (150 mg/kg, stock solution 15 mg/mL in sterile PBS, Goldbio, St. Louis, Mo.), After 10 min, animals were anesthetized with isofluorane until non-responsive, and then placed in the imaging chamber. Three bioluminescent imaging acquisitions were collected at different exposure times (10, 60, 300 sec). Mice were allowed to recover and returned to their cages. Data were analyzed based on total photon flux emission (photons) in the region of interest over the intracranial space using Living Image software (Xenogen Corp.).
Animals were deeply anesthetized with an i.p injection of ketamine/xylazine and fixed by transcardial perfusion through the heart with PBS (pH=7.4) followed by 4% paraformaldehyde in PBS (PFA). Brains were removed and fixed overnight in 4% PFA. Brains were then cryoprotected in 30% sucrose-PBS at 4° C. for 2-3 days, Brains were embedded in tissue-freezing medium (Triangle Biomedical Sciences, Durham, N.C.) and sections were cut to a thickness of 10 μm, thawed onto SuperFrost Plus slides (Fisher, Pittsburgh, Pa.) and kept at −20° C. until further processing. Sections from vehicle- and F10-treated animals were thawed prior to exposure with primary antibodies. Endogenous peroxidase activity and non-specific biotin was quenched with Peroxide Blocking Kit and Biotin Blocking Kit, respectively (ScyTek Laboratories, Logan, Utah). Antigen retrieval was performed with 10 mM sodium citrate buffer, pH 6.0, by microwaving for 5 min. Slides were blocked with SuperBlock (ScyTek) and incubated with polyclonal EphA2 antibody (R&D Systems, Minneapolis, Minn.) overnight at 4° C.

[9] = test system: CNS malignancies included in the NCI 60 cell line panel; settings: all CNS malignancies included in the NCI 60 cell line panel; cited from earlier work
SNB-19 = settings: cited from earlier work
SF-539 = settings: at or below lowest concentration evaluated; cited from earlier work
SF-268 = settings: at or below lowest concentration evaluated; cited from earlier work
SF-295 = settings: at or below lowest concentration evaluated; cited from earlier work
[10] = test system: CNS malignancies included in the NCI 60 cell line panel; assay: NCI 60 cell line screen, CNS malignancies of the panel; assay type: cell-based, human; settings: several GBM cell lines
[11] = with irradiation 6 Gy, 1 nM FdUMP[10] 9 h and/or 10 nM AZD7762 1 h before, 24 h post-irradiation

## O=c1[nH]cc(F)c(=O)[nH]1 [5FU, 5-fluorouracil]
[1]
  viability of primary astrocyte cultures, treated vs control: no apparent differences in viability
Primary cortical neurons
  decreased viability for cortical neurons relative to control: approximately 50%

## NC(=O)Nc1cc(-c2cccc(F)c2)sc1C(=O)N[C@H]1CCCNC1 [AZD7762, reference compound]
U138 cells [2]
  radiosensitization: neither FdUMP[10] nor AZD7762 are appreciably radiosensitizing
U138 cells [3]; [11]
  cleaved caspase 3 (apoptosis): do not result in significant percent of cleaved caspase 3
U138 cells [3]; without irradiation, 10 nM AZD7762
  cleaved caspase 3 (apoptosis): do not result in significant percent of cleaved caspase 3
U138 cells [4]
  survival fraction: 0.80

## Cc1nc2ccc(CN(C)c3ccc(C(=O)N[C@@H](CCC(=O)O)C(=O)O)s3)cc2c(=O)[nH]1 [Raltitrexed, reference compound]
[5]
  TS inhibition: effectively inhibited TS

## FdUMP[10] [F10]
[6]; i.c., osmotic mini-pump over 7 days
  well-tolerated dose: up to 200 mg/kg
[6]; mouse, in vivo
  appearance and behaviour of mice: light-sensitive, with eyes partially closed, and were more lethargic than mice treated with vehicle-only
U138 cells [2]
  radiosensitization: neither FdUMP[10] nor AZD7762 are appreciably radiosensitizing
[7]
  Top1CC formation: induces Top1CC formation
G48a cells
  IC50: ~1000 nM
U-251 MG
  GI50: 115 nM
U138 cells [3]; 1 nM FdUMP[10] and/or 10 nM AZD7762
  DNA content / cell cycle: causes G2-arrest
U138 cells [3]; [11]
  cleaved caspase 3 (apoptosis): result predominantly in apoptotic cells
[8]; 80 mg/kg
  EphA2 staining, tumor-bearing side: only trace levels of EphA2 positive staining
[8]; 120 mg/kg
  EphA2 staining, tumor-bearing side: no EphA2 staining
[8]; 120 mg/kg i.c. over 7 days, p<0.01
  mean tumor volumes (%-change in photon emission): significantly decreased relative to control
[8]; 120 mg/kg vs 80 mg/kg
  extent of tumor cell necrosis (H&E): greater tumor cell necrosis than the 80 mg/kg dose
[8]; 160 mg/kg i.c. over 7 days
  luminescent signal (IVIS imaging): did not display decreased lumincescent signal
  treatment effect by histology: significant treatment effect
[8]; 80 and 120 mg/kg i.c. over 7 days
  tumor regression (IVIS imaging): significant tumor regression
[8]; 80 or 120 mg/kg i.c. over 7 days
  necrosis in tumor tissue (H&E): extensive areas of necrosis selectively within tumor tissue
[8]; mouse, in vivo
  necrosis in contralateral side of brain (H&E): no observable necrosis
[9]
  GI50: < 1000 nM
SNB-19
  GI50: 170 nM
SF-539
  GI50: ≤ 5 nM
[5]
  TS inhibition: inhibited TS completely
SF-268
  GI50: ≤ 5 nM
SF-295
  GI50: ≤ 5 nM
U138 cells [4]
  survival fraction: 0.84
[10]
  differential sensitivity for F10 relative to 5FU: ~10,000 fold
